# Assay results as given in patent US20240238237A1, “CONJUGATED LINOLEIC ACID SUPPLEMENTATION FOR DISEASE TREATMENT” (VIRGINIA TECH INTELLECTUAL PROPERTIES, INC., priority 2021, published 2024).
# Entries after “also recorded” stand apart in the source; their conditions may differ.
# Legend:
# Type in all cases: in vivo, mouse
# [1] = tested on: WT, PWS (Snord116m+/p−) and PWS-KO (Snord116m−/p−) mice; assay: Weekly body weight, fat and lean mass (NMR), rectal temperature and food intake, Example 1
# Procedure: All animal protocols were approved by the Institutional Animal Care and Use Commit-tee at Virginia Tech. Mice with the Snord116 paternal deletion (B6[Cg]-Snord116tm1.1Uta/J Stock No: 008149|1-loxp (KO), Snord116del) were obtained from Jackson Laboratories and maintained on a C57Bl/6 background. Genotyping and breeding were performed as reported. WT mice for the study were siblings of either the PWS (Snord116m+/p−) or PWS-KO (Snord116m−/p−) mice. PWS mice were generated by crossing WT females and male mice who were Snord116m−/p+. Breeder males (Snord116m−/p+) were generated in separate crosses to inherited their deleted allele from a maternal chromosome so that they were considered phenotypically normal in regards to Snord116 expression. PWS-KO (Snord116m−/p−) mice were generated by using non-sibling male and female mice of the genotype Snord116m−/p+ who had inherited their deleted allele maternally. In this type of mating, 50% of the offspring would be heterozygous (and never used for mating or the study, as the origin of their deleted allele could not be determined), and 25% each would have WT alleles or would be PWS-KO. Mice were housed at room temperature at about 22° C. with 12 h light/dark cycles at 7 a.m. and 7 p.m. and ad-libitum access to food (4.5% crude fat) and water. Mice were weaned at 3 weeks old, genotyped using an ear snip, […]. ear tagged, and housed with littermates of the same sex. For tissue dissection, mice were euthanized by CO2 asphyxiation between 12 p.m. and 2 p.m.
# Body weight, fat, and lean mass, rectal temperature, and food intake were measured weekly. For body weight, fat, and lean mass measurements, mice were weighed on Mondays using a standard scale, and then placed in a Bruker (Billrica, MA, USA) LF90 NMR machine using the mouse holder. Measurements were recorded in grams for fat and lean mass.
# All values were expressed as mean+SEM unless indicated otherwise. Comparison of means between groups and calculation of p-values were made using JMP Pro15 software (Cary, NC, USA), with Tukey's post hoc analysis for multiple comparisons when overall p-values in the comparison were significant. For the responses of weight, fat, lean mass, temperature, and food intake shown in figures, a fitted least squares regression with effects of genotype, treatment, and genotype×treatment was analyzed for Week 12 data only. Responses of these dependent variables were also analyzed across the 12-week time period, adding in effects of week, week×treatment, and week×genotype. […] The responses that had pre-post measures (wheel running, elevated plus, fasting glucose, glucose tolerance) were analyzed separately for the pre and post time periods (no effect of time). Animals were grouped together for the pre time period, regardless of their assigned data, as all animals were on standard mouse chow at that time. […] Rotarod data were collected only during the post-period and analyzed with a response of time and effects of genotype, treatment, and genotype×treatment. For area-under-the-curve calculations, the formula function in JMP was used to calculate the area for individual animals pre and post, and then fit least squares regression model used for effects of genotype, treatment, and genotype×treatment.
# [2] = tested on: WT, PWS (Snord116m+/p−) and PWS-KO (Snord116m−/p−) mice; assay: Fasting glucose and glucose tolerance test; conditions: all genotypes, after 12 weeks diet, vs control diet
# Procedure: Mice were food-deprived for 12-15 h during the dark cycle in a cage devoid of bedding material. For the fasting measurement, the tail was snipped (1-2 mm), and blood was collected directly on Care Touch glucose test strips and directly measured using a Care Touch blood glucose monitor (Future Diagnostics USA, Brooklyn, NY, USA). Glucose (pharmaceutical grade dextrose, 2 g/kg in PBS, sterile) was injected intraperitoneally (IP) and tail blood samples were obtained at 15, 30, 60, 90, and 120 min following the injection. Area under the curve was calculated using the formula (((([fasting glucose×7.5]+[15 min glucose×15)+[30 min glucose×22.5])+[60 min glucose×30])+[90 min glucose×30])+[120 min glucose×15]).
# [3] = tested on: WT, PWS (Snord116m+/p−) and PWS-KO (Snord116m−/p−) mice; assay: Elevated plus maze anxiety-like behavior, Example 1; conditions: pre- and post-intervention; genotype, treatment or interaction
# Procedure: A plus-shaped elevated plus apparatus with two open and two closed arms was constructed using measurements obtained from a commercial apparatus. This elevated plus maze was used for anxiety-like behavior analysis. The maze was cleaned with 70% ethanol before and after the procedure for each mouse and allowed to fully dry between mice. Mice were placed in the center/cross-arms and allowed to freely explore the maze for 5 min while the duration and frequency of entries into open and closed arms was recorded. Animals that enter the open arms more frequently are considered to display less overall anxiety-like behavior than those that stay in the closed arms.
# [4] = tested on: liver of WT, PWS and PWS-KO mice; assay: Liver histology (H&E)
# Procedure: Tissues were isolated immediately following euthanasia by CO2 asphyxiation and placed into 4% paraformaldehyde, overnight, with rocking at 4° C. The tissues were then rinsed in 70% ethanol and stored in 70% ethanol at 4° C. until processing. The Virginia Tech Veterinary Teaching Hospital at the Virginia-Maryland College of Veterinary Medicine processed the tissues for histology and stained with hematoxylin-eosin stain for microscopy. Representative samples were visualized using a 40× ocular on a Nikon Eclipse 50i micro-scope and captured using an Olympus Q-color3 camera.
# [5] = tested on: C57Bl/6 WT, PWS, PWS-KO mice and 129v/J mice with a deletion of Nhlh2; assay: Rotarod balance and forward locomotion, Example 2; conditions: end of 12 week study, regardless of genotype
# Procedure: At the end of the 12 week study, mice were acclimated to using a rotarod apparatus (FIG. 15A), for one day with grip tape on the rod, and two days without grip tape, at an acceleration of 2.65%, starting from 0) rpm to a maximum speed of 20 rpm. The average of four trials, spaced at least 5 minutes apart on day 4 of testing were the basis for the experimental result.
# [6] = tested on: N2KO (Nhlh2 deletion) and WT mice; assay: Body weight, body fat and lean mass in N2KO mice, Example 3
# Procedure: In males, incidence of HH is as high as one in 4000, with incidence in females being about 2-5 times lower. It was previously shown that mice containing a mutation of Nhlh2, a neuronal basic-helix-loop-helix transcription factor show a failure of pubertal onset, adult-onset obesity and hypogonadism. These mice are termed N2KO mice. […] In this Example, N2KO and WT mice were treated with about 0.5% CLA for 12 weeks.
substance,measurement,setting,value
conjugated linoleic acid [CLA],"Body fat, WT control diet more than WT CLA diet","[1]; WT mice, end of study",~4 g
same,Reduction in body fat levels with treatment,"[1]; all genotypes, vs control HFD alone",3.6 fold
same,"Body weight, overall effect of CLA diet","[1]; all three genotypes, 20% fat diet, vs control diet",significant reductions in body weight overall for the three genotypes
same,"Body weight, post hoc per genotype",[1]; each genotype on CLA diet vs control diet,significant body weight reductions
same,"Lean mass, treatment effect","[1]; whole model, 12 weeks",without a treatment effect
same,Fasting glucose,[2],significantly higher; also recorded: significantly increased fasting glucose
same,"Time in open arms, elevated plus",[3],no differences
same,"Mice with liver steatosis on CLA diet, PWS and PWS-KO",[4]; PWS and PWS-KO,~50%
same,"Liver steatosis, PWS-KO mice on CLA diet",[4]; PWS-KO,four of seven
same,"Liver steatosis, PWS mice on CLA diet","[4]; PWS, two of these mild",five of eight
same,"Liver steatosis, WT mice on CLA diet",[4]; WT,all liver sections
same,"Mice with liver steatosis on CLA diet, WT",[4]; WT,100%
same,Rotarod balance and forward locomotion,[5],balance and forward locomotion improvement
same,"Lean mass, N2KO study",[6]; 12 weeks CLA,significantly improved
same,"Body fat, N2KO mice",[6]; about 0.5% CLA for 12 weeks,reduced; also recorded: decreased body fat; also recorded: significant reduction
same,"Body weight, N2KO mice",[6]; about 0.5% CLA for 12 weeks,reduced body weight; also recorded: improved body weight; also recorded: significant reduction
